Test results taken from patent publication US20090149520A1, “OXAZOLIDINONES CONTAINING OXINDOLES AS ANTIBACTERIAL AGENTS” (PFIZER INC, priority 2006, published 2009).
In brackets after ≈: the same amount, converted by molar mass.

Legend:
Assay type in all cases: cell-based
E. faecalis MGH-2 EF 1-1 = experiment: in vitro antibacterial activity MIC, E. faecalis; conditions: Enterococcus faecalis, MGH2EF11; strain MGH-2 EF 1-1; read-out: MICs E. faecalis MGH-2 EF 1-1
Source text: (§1) The in vitro antibacterial activity of the compounds of the present invention may be assessed by following procedures recommended in (1) National Committee for Clinical Laboratory Standards (January 2003), Methods for dilution antimicrobial tests for bacteria that grow aerobically, Approved Standard (6th ed), M7-A6, NCCLS, Wayne, Pa.; (2) National Committee for Clinical Laboratory Standards (March 2001), Methods for antimicrobial susceptibility testing of anaerobic bacteria, Approved Standard (5th ed), M11-A4, NCCLS, Wayne, Pa.; (3) National Committee for Clinical Laboratory Standards (Jan. 2003), MIC testing supplemental tables, M100-S13 (for use with M7-A6), NCCLS, Wayne, Pa.; and (4) Murray P R, Baron E J, Jorgensen J H, et al. Manual of Clinical Microbiology (8th ed) Washington, D.C.: American Society for Microbiology Press, 2003. The antibacterial activity can be presented in the form of MIC value. The MIC value is the lowest concentration of drug, which prevented macroscopically visible growth under the conditions of the test.

S. aureus UC-76 SA-1 = experiment: in vitro antibacterial activity MIC, S. aureus; conditions: Staphylococcus aureus, UC76; strain UC-76 SA-1; read-out: MICs S. aureus UC-76 SA-1
Source text: as §1

S. pneumoniae SV1 SP-3 = experiment: in vitro antibacterial activity MIC, S. pneumoniae; conditions: Streptococcus pneumoniae, SV1SP3; strain SV1 SP-3; read-out: MICs S. pneumoniae SV1 SP-3
Source text: as §1

MIC (E. faecalis MGH-2 EF 1-1) [µg/mL]	MIC (S. aureus UC-76 SA-1) [µg/mL]	MIC (S. pneumoniae SV1 SP-3) [µg/mL]	SMILES
8 (≈ 23.4 µM)	8 (≈ 23.4 µM)	8 (≈ 23.4 µM)	CC(C)N1C(=O)Cc2cc(N3C[C@H](Cn4ccnn4)OC3=O)ccc21 [Example 1, (R)-5-((1H-1,2,3-triazol-1-yl)methyl)-3-(1-isopropyl-2 oxoindolin-5-yl)oxazolidin-2-one]
8 (≈ 24.4 µM)	4 (≈ 12.2 µM)	4 (≈ 12.2 µM)	CCN1C(=O)Cc2cc(N3C[C@H](Cn4ccnn4)OC3=O)ccc21 [Example 2]
